Test results reported in US11548952B2, “Bispecific antibody against CD3 and CD20 in combination therapy for treating diffuse large B-cell lymphoma” (GENMAB A/S, priority 2020, dated 2023).
Read-outs that look alike come from different tables or passages of the source.

Experiments:
CD20 = target: T1, CD20 (Homo sapiens, UniProt P11836); details: bind to a different epitope; cited from earlier work
T1 sequence (P11836 1-297): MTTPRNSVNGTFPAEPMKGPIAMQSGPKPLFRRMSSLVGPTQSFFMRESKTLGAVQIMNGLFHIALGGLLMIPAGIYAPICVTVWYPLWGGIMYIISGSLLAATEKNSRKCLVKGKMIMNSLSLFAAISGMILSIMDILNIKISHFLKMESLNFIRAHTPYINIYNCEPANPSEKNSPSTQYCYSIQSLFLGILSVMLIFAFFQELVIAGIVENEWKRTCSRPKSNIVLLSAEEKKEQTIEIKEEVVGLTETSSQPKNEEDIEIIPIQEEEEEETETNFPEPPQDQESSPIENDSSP

[1] = tested on: R/R DLBCL eligible for ASCT; assay type: in vivo, human; details: in combination with R-DHAX/C, preliminary
Procedure: The trial is conducted in 2 parts: dose escalation (Part 1) and expansion (Part 2). Subjects participate in only one part. Both parts consist of a screening period, a treatment period, a safety follow-up period, and a survival follow-up period.
Epcoritamab is initially be administered in combination with R-DHAX/C in a 3-subject cohort. DLTs are evaluated during the first 28 days.
Dexamethasone (40 mg) is administered intravenously or orally on days 1-4 of a cycle once every 3 weeks (Q3W) for cycles 1-3. Cytarabine (2 g/m^2) is administered intravenously on day 1 (usually over 3 hours), repeated after 12 hours (may result in a second dose on day 2 depending on timing of first dose), once every 3 weeks (Q3W) for cycles 1-3. […] Carboplatin (for DHAC) (AUC=5 mg/ml/min; Calvert's formula) is administered intravenously on day 1 once every 3 weeks (Q3W) for cycles 1-3.
CRS is graded according to the ASTCT grading for CRS (Tables 6 and 7), and for treatment of CRS, subjects should receive supportive care. […]

[2] = tested on: CD20-expressing Raji-luc tumor cells; details: NOD-SCID mice injected with Raji-luc tumor cells and PBMCs; even in the presence of an excess of IgG1-RTX-FEAR; cited from earlier work

Row | Substance | competition for CD20 binding (CD20) | responders observed ([1]; escalation phase, as of Sep. 8, 2021, 22 patients dosed in total) | responders observed ([1]; expansion phase 48 mg, as of Sep. 8, 2021, response data not completely entered) | tumor growth in the xenograft model [2]
1 | IgG1-CD20: anti-CD20 antibody of which the CD20 arm of epcoritamab is derived | compete for CD20 binding |  |  | 
2 | Epcoritamab: IgG1 bispecific CD3×CD20 antibody; heavy and light chain pairs SEQ ID NOs: 24 and 25, and 26 and 27; CAS 2134641-34-0 |  | 4 | 0 | effectively reduce tumor growth
